Measured values from patent publication US10973758B2 (O.D. Ocular Discovery Ltd., priority 2013, dated 2021).
Like-named read-outs stand apart in the source and are kept apart here.

What was measured:
[1] = Dissolution in pH-adjusted aqueous solution; type: physicochemical; details: pH adjusted to ˜6.6 (6.5-6.7)
Description: The natural pH of tear fluid is 7.4; however, discomfort for the user will not be felt as long as the pH of the administered medication stays in the range of 6.6-7.8 (Sampath Kumar et al., “Recent Challenges and Advances in Ophthalmic Drug Delivery System,” in The Pharma Innovation, Vol. 1, No. 4 (2012)). Others administer eye drops at a pH of 5.5 and find this pH to be optimal.

cAMP levels = details: in-vitro, in comparison to a control; cited from earlier work
nitric oxide levels = details: cited from earlier work
[2] = system: ocular inflammatory disease; details: cited from earlier work
thrombus formation = details: arterial circulation of the brain, rabbit model; cited from earlier work
[3] = cited from earlier work; for peak plasma level: oral
[4] = cited from earlier work

Q: With `OCCN(CCO)c1nc(N2CCCCC2)c2nc(N(CCO)CCO)nc(N3CCCCC3)c2n1` [dipyridamole, 2,6-bis (diethanolamino)-4,8-dipiperidinopyrimido [5,4-d] pyrimidine] as the compound, how does the “dissolution in aqueous solution” value [1] read?
A: Its value is “fully dissolves”.

Q: What about the “effect on cAMP levels” value (cAMP levels) of the same compound?
A: Its value is “negligible effect”.

Q: And the “effect on nitric oxide levels” value (nitric oxide levels)?
A: Its value is “increases nitric oxide levels”.

Q: And the “effect in ocular inflammatory disease” value ([2]; systemically administered)?
A: The value was “significant beneficial effect”.

Q: What about the “effect in ocular inflammatory disease” value ([2]; topically administered (in liquid formulation)) of the same compound?
A: Its value is “ineffective”.

Q: And the “effect on thrombus formation” value (thrombus formation)?
A: The value was “reduce thrombus formation”.

Q: And the “half-life, third phase of tri-exponential decline” value ([3]; IV or oral 20-50 mg, followed up to 60 hours)?
A: Its value is 10 to 12 h.

Q: And the peak plasma level ([3]; after a 25 mg dose)?
A: Its peak plasma level is “about 0.5 g/mL”.

Q: What about the peak plasma level ([3]; after a 75 mg dose) of the same compound?
A: Its peak plasma level is 1.6 µg/mL.

Q: What about the distribution half-life ([3]; humans, after oral administration) of the same compound?
A: Its distribution half-life is “about 3 hours”.

Q: What about the “time to peak plasma levels” value ([3]; humans, following oral administration) of the same compound?
A: Its value is 1 to 3 h.

Q: And the distribution half-life ([3]; humans, intravenous (IV) administration)?
A: Its distribution half-life is “about 25 minutes”.

Q: What about the “solubility in methanol” value ([4]; methanol) of the same compound?
A: Its value is “very soluble”.

Q: What about the “solubility in water” value ([4]; water) of the same compound?
A: The value was “practically insoluble”.
